From patent publication EP4692061A1, “LOW-MOLECULAR-WEIGHT COMPOUND HAVING CEREBLON-BINDING ACTIVITY, AND USE THEREOF” (Aevis Bio, Inc., priority 2023, dated 2024)

The compounds below were run against cereblon (CRBN) (Homo sapiens, UniProt Q96SW2) (assay: In vitro CRBN binding assay (AlphaScreen, competitive inhibition of the PROTAC assay)). Details: Table 1; AlphaScreen, PROTAC Optimization Kit for BET Bromodomain-Cereblon Binding; read-out: Alpha IC50.
Compound `O=C1CCC(c2ccc3c(c2)OCCN(c2cccc(NC(=O)C4CCOCC4)c2)C3=O)C(=O)N1` (stereo not drawn) [AEV40216] has an IC50 of 2.51 µM. `CC(C)(C)c1ccc(CNc2cccc(C3CCC(=O)NC3=O)c2)cc1` (stereo not drawn) [AEV40098] showed an IC50 of 2.85 µM. `O=C1CCC(c2ccc3c(c2)OCCNC3=O)C(=O)N1` (stereo not drawn) [AEV40079] gave an IC50 of 2.44 µM. Compound `O=C1CCC(c2cccc(NS(=O)(=O)c3cccc(NCc4ccc5[nH]ccc5c4)c3)c2)C(=O)N1` (stereo not drawn) [AEV40171] has an IC50 of 1.28 µM. Compound `O=C1CCC(c2cc(NS(=O)(=O)c3ccc(Cl)cc3)ccc2F)C(=O)N1` (stereo not drawn) [AEV40038] has an IC50 of 0.69 µM. In the case of `NCc1cccc(C2CCC(=O)NC2=O)c1` (stereo not drawn) [AEV40132], the IC50 is reported as > 10 µM. With `CC(=O)Nc1ccc(F)c(C2CCC(=O)NC2=O)c1` (stereo not drawn) [AEV40034] the IC50 was 6.26 µM. In the case of `O=C1CCC(c2cccc(NCc3ccc(Oc4ccccc4)cc3)c2)C(=O)N1` (stereo not drawn) [AEV40103], the IC50 is reported as 3.13 µM. `O=C1CCC(c2cccc(NC(=O)c3ccsc3Cl)c2)C(=O)N1` (stereo not drawn) [AEV40189] showed an IC50 of 1.63 µM. `O=C1CCC(c2cccc(NS(=O)(=O)c3cccc(NC(=O)c4ccc(Cl)cc4)c3)c2)C(=O)N1` (stereo not drawn) [AEV40135] showed an IC50 of 1.2 µM. `COc1cc(C)ccc1CNc1cccc(C2CCC(=O)NC2=O)c1` (stereo not drawn) [AEV40108] was tested, and the IC50 was 0.84 µM. Compound `O=C1CCC(c2cccc(NCc3ccc(-c4ccccc4)cc3)c2)C(=O)N1` (stereo not drawn) [AEV40122] has an IC50 of 2.47 µM. In the case of `O=C1CCC(c2cccc(NCc3cccc(Oc4ccccc4)c3)c2)C(=O)N1` (stereo not drawn) [AEV40121], the IC50 is reported as 3.04 µM. `Cc1ccc(C2CCC(=O)NC2=O)cc1` (stereo not drawn) [AEV40039] gave an IC50 of 0.87 µM. `CN1Cc2cc(C3CCC(=O)NC3=O)ccc2C1=O` (stereo not drawn) [AEV40050] was tested, and the IC50 was 2.68 µM. `O=C1CCC(c2ccc3c(c2)NC(=O)C3)C(=O)N1` (stereo not drawn) [AEV40062] gave an IC50 of 2.39 µM. With `O=C1CCC(c2cccc(NS(=O)(=O)c3cccs3)c2)C(=O)N1` (stereo not drawn) [AEV40072] the IC50 was 0.31 µM. `O=C1CCC(c2cccc(NC(=O)c3ccc(Cl)cc3Cl)c2)C(=O)N1` (stereo not drawn) [AEV40076] showed an IC50 of 1.35 µM. Compound `Cc1ccc(CNc2cccc(C3CCC(=O)NC3=O)c2)c(C)c1` (stereo not drawn) [AEV40094] has an IC50 of 0.81 µM. `O=C1CCC(c2cccc(NS(=O)(=O)c3cccc(NC(=O)c4c(Cl)ccc(Cl)c4F)c3)c2)C(=O)N1` (stereo not drawn) [AEV40159] showed an IC50 of 1.49 µM. `Nc1cc(-c2ccccc2)n(C(=O)CCc2cccc(Nc3cccc(C4CCC(=O)NC4=O)c3)c2)n1` (stereo not drawn) [AEV40201] showed an IC50 of 1.22 µM. `CC(C)C(=O)Nc1cccc(C2CCC(=O)NC2=O)c1` (stereo not drawn) [AEV40024] gave an IC50 of 6.11 µM. For `O=C1CCC(c2cccc(Nc3cccc(CCC(=O)N4CCS(=O)(=O)CC4)c3)c2)C(=O)N1` (stereo not drawn) [AEV40205], the IC50 was 0.84 µM. Work on `Nc1nn(C(=O)CCc2cccc(Nc3cccc(C4CCC(=O)NC4=O)c3)c2)c2ccccc12` (stereo not drawn) [AEV40202] yielded an IC50 of 0.79 µM. `Cc1ccc(C(=O)Nc2cccc(C3CCC(=O)NC3=O)c2)cc1` (stereo not drawn) [AEV40141] showed an IC50 of 2.08 µM. Work on `O=C1CCC(c2ccc(F)cc2)C(=O)N1` (stereo not drawn) [AEV40004] yielded an IC50 of 4.43 µM. `CC1(C(=O)Nc2cccc(S(=O)(=O)Nc3cccc(C4CCC(=O)NC4=O)c3)c2)CC1` (stereo not drawn) [AEV40227] was tested, and the IC50 was 0.98 µM. Work on `O=C1CCC(c2ccc3c(c2)OCCN(c2ccccc2)C3=O)C(=O)N1` (stereo not drawn) [AEV40085] yielded an IC50 of 6.58 µM. For `Cc1cc(Cl)ccc1C(=O)Nc1cccc(C2CCC(=O)NC2=O)c1` (stereo not drawn) [AEV40147], the IC50 was 1.37 µM. For `COC(=O)c1cccc(S(=O)(=O)Nc2cccc(C3CCC(=O)NC3=O)c2)c1` (stereo not drawn) [AEV40226], the IC50 was 2.22 µM. Compound `O=C1CCC(c2ccc3c(c2)CN(CCc2ccccc2)C3=O)C(=O)N1` (stereo not drawn) [AEV40049] has an IC50 of 2.06 µM. Work on `O=C1CCC(c2ccc3c(c2)C(=O)NC3)C(=O)N1` (stereo not drawn) [AEV40032] yielded an IC50 of 3.1 µM. Work on `O=C1CCC(c2cccc(NC(=O)c3ccccc3Cl)c2)C(=O)N1` (stereo not drawn) [AEV40144] yielded an IC50 of 0.96 µM. Work on `COc1ccc(C(=O)Nc2cccc(C3CCC(=O)NC3=O)c2)c(Cl)c1` (stereo not drawn) [AEV40176] yielded an IC50 of 1.24 µM. With `O=C1CCC(c2cccc(NC(=O)c3ccccc3F)c2)C(=O)N1` (stereo not drawn) [AEV40145] the IC50 was 1.03 µM. `C[C@H](O)C(=O)Nc1cccc(C2CCC(=O)NC2=O)c1` (stereo partly drawn) [AEV40031] showed an IC50 of 3.86 µM. With `O=C1CCC(c2cccc(NS(=O)(=O)c3ccccc3F)c2)C(=O)N1` (stereo not drawn) [AEV40045] the IC50 was 0.3 µM. In the case of `O=C1CCC(c2cccc(Nc3cccc(NC(=O)c4ccc(Cl)cc4Cl)c3)c2)C(=O)N1` (stereo not drawn) [AEV40220], the IC50 is reported as 2.11 µM. `O=C1CCC(c2cccc(NS(=O)(=O)c3cccc(NC(=O)c4cccc(Cl)c4)c3)c2)C(=O)N1` (stereo not drawn) [AEV40136] gave an IC50 of 0.79 µM. `O=C1CCC(c2cccc(NS(=O)(=O)c3cccc(NC(=O)c4ccccc4Br)c3)c2)C(=O)N1` (stereo not drawn) [AEV40155] gave an IC50 of 0.95 µM. With `O=C1CCC(c2cccc(NC(=O)c3c[nH]c4ccccc34)c2)C(=O)N1` (stereo not drawn) [AEV40194] the IC50 was 0.85 µM. Compound `Nc1cccc(S(=O)(=O)Nc2cccc(C3CCC(=O)NC3=O)c2)c1` (stereo not drawn) [AEV40073] has an IC50 of 0.59 µM. Compound `O=C1CCC(c2cccc(NC(=O)c3cc(Br)ccc3Cl)c2)C(=O)N1` (stereo not drawn) [AEV40223] has an IC50 of 1.38 µM. For `CS(=O)(=O)N1Cc2cc(C3CCC(=O)NC3=O)ccc2C1=O` (stereo not drawn) [AEV40059], the IC50 was 102 µM. With `O=C1CCC(c2cccc(NS(=O)(=O)c3cccc(NC(=O)c4cc(F)cc(F)c4F)c3)c2)C(=O)N1` (stereo not drawn) [AEV40158] the IC50 was 0.71 µM. Compound `O=C1CCC(c2cccc(NS(=O)(=O)c3cccc(NC(=O)c4c(F)cccc4C(F)(F)F)c3)c2)C(=O)N1` (stereo not drawn) [AEV40149] has an IC50 of 1.5 µM. In the case of `O=C1CCC(c2ccc3c(c2)C(=O)NCC3)C(=O)N1` (stereo not drawn) [AEV40078], the IC50 is reported as 3.11 µM. Compound `O=C1CCC(c2cccc(NS(=O)(=O)c3cccc(NCc4c[nH]c5ccc(Cl)cc45)c3)c2)C(=O)N1` (stereo not drawn) [AEV40173] has an IC50 of 0.4 µM. `Cc1c(F)cccc1S(=O)(=O)Nc1cccc(C2CCC(=O)NC2=O)c1` (stereo not drawn) [AEV40052] gave an IC50 of 0.95 µM. `Cn1cnc(S(=O)(=O)Nc2cccc(C3CCC(=O)NC3=O)c2)c1` (stereo not drawn) [AEV40051] showed an IC50 of 0.79 µM. For `O=C1CCC(c2ccc3ncoc3c2)C(=O)N1` (stereo not drawn) [AEV40203], the IC50 was 1.8 µM. `O=C1CCC(c2cccc(NC(=O)c3ccc(Cl)c(Cl)c3)c2)C(=O)N1` (stereo not drawn) [AEV40137] was tested, and the IC50 was 2.22 µM. `O=C1CCC(c2cccc(NS(=O)(=O)c3ccc([N+](=O)[O-])c(C(F)(F)F)c3)c2)C(=O)N1` (stereo not drawn) [AEV40053] showed an IC50 of 0.75 µM. `O=C1CCC(c2cccc(NC(=O)c3sccc3Cl)c2)C(=O)N1` (stereo not drawn) [AEV40182] gave an IC50 of 0.88 µM. With `O=C1CCC(c2cccc(NCc3ccc(F)cc3O)c2)C(=O)N1` (stereo not drawn) [AEV40097] the IC50 was 0.99 µM. `O=C1CCC(c2cccc(NC(=O)c3ccc(F)c(F)c3)c2)C(=O)N1` (stereo not drawn) [AEV40166] showed an IC50 of 2.52 µM. `O=C1CCC(c2ccc(NS(=O)(=O)c3ccc(Cl)cc3)cc2)C(=O)N1` (stereo not drawn) [AEV40063] gave an IC50 of 1.43 µM. Compound `O=C1CCC(c2cccc(NS(=O)(=O)c3cccc(NCc4ccc5ocnc5c4)c3)c2)C(=O)N1` (stereo not drawn) [AEV40172] has an IC50 of 0.21 µM. In the case of `O=C1CCC(c2cccc(NC(=O)c3ccccc3Br)c2)C(=O)N1` (stereo not drawn) [AEV40179], the IC50 is reported as 0.64 µM. With `O=C1CCC(c2ccc3c(c2)CNC3=O)C(=O)N1` (stereo not drawn) [AEV40040] the IC50 was 1.39 µM. For `CC(=O)Nc1cccc(C2CCC(=O)NC2=O)c1` (stereo not drawn) [AEV40016], the IC50 was 5.28 µM. With `O=C1CCC(c2cccc(NCc3cccc(C(F)F)c3)c2)C(=O)N1` (stereo not drawn) [AEV40105] the IC50 was 1.42 µM. With `Cc1ccc(NC(=O)CCc2cccc(Nc3cccc(C4CCC(=O)NC4=O)c3)c2)cc1Cl` (stereo not drawn) [AEV40185] the IC50 was 4.35 µM. Compound `CC(C)(C)OC(=O)NCc1cccc(C2CCC(=O)NC2=O)c1` (stereo not drawn) [AEV40130] has an IC50 of 4.33 µM. `O=C1CCC(c2cccc(NS(=O)(=O)c3cccc(NC(=O)c4c(F)cccc4F)c3)c2)C(=O)N1` (stereo not drawn) [AEV40156] was tested, and the IC50 was 1.25 µM. `O=C1CCC(c2cccc(NCc3ccc(Br)cc3Cl)c2)C(=O)N1` (stereo not drawn) [AEV40109] was tested, and the IC50 was 2.52 µM.
